How the values were obtained:
Test in all cases: Kinase panel (140 human kinases)
Type in all cases: biochemical
BRSK2 = molecular target: T1, BRSK2 (Homo sapiens, UniProt Q8IWQ3)
T1 sequence (Q8IWQ3 1-736): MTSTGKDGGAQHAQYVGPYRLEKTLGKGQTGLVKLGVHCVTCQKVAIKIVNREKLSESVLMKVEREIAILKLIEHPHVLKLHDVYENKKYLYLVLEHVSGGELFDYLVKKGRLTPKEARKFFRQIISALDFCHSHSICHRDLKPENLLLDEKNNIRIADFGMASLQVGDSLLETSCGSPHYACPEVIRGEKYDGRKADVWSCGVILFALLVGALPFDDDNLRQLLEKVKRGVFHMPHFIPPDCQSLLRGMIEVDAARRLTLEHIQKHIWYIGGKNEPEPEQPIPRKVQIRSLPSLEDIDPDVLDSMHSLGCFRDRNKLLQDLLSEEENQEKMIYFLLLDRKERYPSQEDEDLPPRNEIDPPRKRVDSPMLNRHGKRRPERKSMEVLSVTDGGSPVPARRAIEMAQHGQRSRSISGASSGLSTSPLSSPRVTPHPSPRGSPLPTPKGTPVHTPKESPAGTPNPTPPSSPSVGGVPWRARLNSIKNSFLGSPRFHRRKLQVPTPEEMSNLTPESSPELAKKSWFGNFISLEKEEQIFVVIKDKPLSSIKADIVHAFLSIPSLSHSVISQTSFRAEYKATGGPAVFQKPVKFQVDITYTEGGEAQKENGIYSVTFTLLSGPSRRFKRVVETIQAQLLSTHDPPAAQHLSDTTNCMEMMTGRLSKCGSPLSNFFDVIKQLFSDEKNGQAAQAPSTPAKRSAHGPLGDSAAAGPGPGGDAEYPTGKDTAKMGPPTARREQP
Procedure: (§1) BAY-3827 and BAY-974 were assayed against a 140-human kinase panel at 0.1 μM and at 1 μM (BAY-3827) concentration in a [γ-^33P] ATP–based radioactive filter binding assay ([31], [65]) setup in duplicates with reported mean remaining kinase percentage activity alongside SD (table S1). Assays were performed at either 5, 20, or 50 μM ATP to be at or below the Michaelis constant for ATP for each enzyme and conducted by the services offered by the International Centre for Kinase Profiling at MRC Protein Phosphorylation and Ubiquitylation Unit, University of Dundee (https://www.kinase-screen.mrc.ac.uk/services/premier-screen).

TrkA = TrkA (Homo sapiens, UniProt P04629)
Procedure: as §1

MNK2 = MNK2 (Homo sapiens, UniProt Q9HBH9)
Procedure: as §1

LKB1 = LKB1 (Homo sapiens, UniProt Q15831)
Procedure: as §1

FGF-R1 = FGF-R1 (Homo sapiens, UniProt P11362)
Procedure: as §1

EPH-A2 = EPH-A2 (Homo sapiens, UniProt P29317)
Procedure: as §1

p38d MAPK = p38d MAPK (Homo sapiens, UniProt O15264)
Procedure: as §1

PIM1 = PIM1 (Homo sapiens, UniProt P11309)
Procedure: as §1

CK1δ = CK1δ (Homo sapiens, UniProt P48730)
Procedure: as §1

PAK2 = PAK2 (Homo sapiens, UniProt Q13177)
Procedure: as §1

PINK = PINK (Tribolium castaneum, UniProt D6WMX4)
Procedure: as §1

RIPK2 = RIPK2 (Homo sapiens, UniProt O43353)
Procedure: as §1

MKK6 = MKK6 (Homo sapiens, UniProt P52564)
Procedure: as §1

TGFBR1 = TGFBR1 (Homo sapiens, UniProt P36897)
Procedure: as §1

ERK5 = ERK5 (Homo sapiens, UniProt Q13164)
Procedure: as §1

ULK2 = ULK2 (Homo sapiens, UniProt Q8IYT8)
Procedure: as §1

ABL = ABL (Homo sapiens, UniProt P00519)
Procedure: as §1

ZAP70 = ZAP70 (Homo sapiens, UniProt P43403)
Procedure: as §1

CDK9-Cyclin T1 = CDK9-Cyclin T1 (Homo sapiens, UniProt P50750)
Procedure: as §1

ASK1 = ASK1 (Homo sapiens, UniProt Q99683)
Procedure: as §1

CHK1 = CHK1 (Homo sapiens, UniProt O14757)
Procedure: as §1

TSSK1 = TSSK1 (Homo sapiens, UniProt Q9BXA7)
Procedure: as §1

GSK3b = GSK3b (Homo sapiens, UniProt P49841)
Procedure: as §1

Src = Src (Homo sapiens, UniProt P12931)
Procedure: as §1

MPSK1 = MPSK1 (Homo sapiens, UniProt O75716)
Procedure: as §1

OSR1 = OSR1 (Homo sapiens, UniProt O95747)
Procedure: as §1

MARK3 = MARK3 (Homo sapiens, UniProt P27448)
Procedure: as §1

BRSK1 = BRSK1 (Homo sapiens, UniProt Q8TDC3)
Procedure: as §1

PKCγ = PKCγ (Homo sapiens, UniProt P05129)
Procedure: as §1

MARK1 = MARK1 (Homo sapiens, UniProt Q9P0L2)
Procedure: as §1

SIK3 = SIK3 (Homo sapiens, UniProt Q9Y2K2)
Procedure: as §1

ABL, sequence (P00519 whole entry): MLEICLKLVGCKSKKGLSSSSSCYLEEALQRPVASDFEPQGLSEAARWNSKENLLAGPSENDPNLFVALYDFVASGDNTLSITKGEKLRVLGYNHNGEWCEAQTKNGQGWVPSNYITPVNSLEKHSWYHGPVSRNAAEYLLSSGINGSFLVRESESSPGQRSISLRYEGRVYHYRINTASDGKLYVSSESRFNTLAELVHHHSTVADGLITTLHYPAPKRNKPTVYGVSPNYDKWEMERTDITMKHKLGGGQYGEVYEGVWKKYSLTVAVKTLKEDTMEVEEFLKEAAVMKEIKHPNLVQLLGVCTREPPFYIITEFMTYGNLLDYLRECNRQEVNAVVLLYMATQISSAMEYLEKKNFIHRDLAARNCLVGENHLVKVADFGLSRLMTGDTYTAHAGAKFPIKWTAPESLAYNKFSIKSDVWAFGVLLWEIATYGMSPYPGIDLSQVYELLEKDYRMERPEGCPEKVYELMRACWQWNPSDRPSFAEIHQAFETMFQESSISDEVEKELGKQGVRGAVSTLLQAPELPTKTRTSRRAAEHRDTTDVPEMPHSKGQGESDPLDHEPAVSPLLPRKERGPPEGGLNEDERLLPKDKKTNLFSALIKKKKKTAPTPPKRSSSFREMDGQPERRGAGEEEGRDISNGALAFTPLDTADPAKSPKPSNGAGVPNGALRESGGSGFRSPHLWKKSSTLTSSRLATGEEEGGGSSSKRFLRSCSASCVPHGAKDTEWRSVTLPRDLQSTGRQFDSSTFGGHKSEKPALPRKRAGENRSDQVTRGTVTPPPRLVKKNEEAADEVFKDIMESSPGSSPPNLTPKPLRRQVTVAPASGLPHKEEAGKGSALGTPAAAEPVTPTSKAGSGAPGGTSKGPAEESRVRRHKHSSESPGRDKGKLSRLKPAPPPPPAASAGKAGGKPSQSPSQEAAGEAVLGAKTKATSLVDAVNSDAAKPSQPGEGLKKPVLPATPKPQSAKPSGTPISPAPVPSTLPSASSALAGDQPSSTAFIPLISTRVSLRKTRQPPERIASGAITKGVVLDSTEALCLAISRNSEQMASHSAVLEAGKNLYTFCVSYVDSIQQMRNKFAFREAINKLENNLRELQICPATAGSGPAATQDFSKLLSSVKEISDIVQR
TSSK1, sequence (Q9BXA7 whole entry): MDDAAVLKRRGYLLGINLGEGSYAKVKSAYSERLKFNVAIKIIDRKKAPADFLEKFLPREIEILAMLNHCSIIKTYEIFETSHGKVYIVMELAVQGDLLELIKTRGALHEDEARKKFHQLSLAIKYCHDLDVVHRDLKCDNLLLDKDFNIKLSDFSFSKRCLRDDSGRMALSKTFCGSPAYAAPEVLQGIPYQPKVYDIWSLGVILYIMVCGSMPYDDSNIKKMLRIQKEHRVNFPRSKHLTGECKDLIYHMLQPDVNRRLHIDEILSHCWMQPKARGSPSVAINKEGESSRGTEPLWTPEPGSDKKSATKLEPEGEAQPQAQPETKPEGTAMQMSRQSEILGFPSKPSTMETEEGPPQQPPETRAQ
PINK, sequence (D6WMX4 whole entry): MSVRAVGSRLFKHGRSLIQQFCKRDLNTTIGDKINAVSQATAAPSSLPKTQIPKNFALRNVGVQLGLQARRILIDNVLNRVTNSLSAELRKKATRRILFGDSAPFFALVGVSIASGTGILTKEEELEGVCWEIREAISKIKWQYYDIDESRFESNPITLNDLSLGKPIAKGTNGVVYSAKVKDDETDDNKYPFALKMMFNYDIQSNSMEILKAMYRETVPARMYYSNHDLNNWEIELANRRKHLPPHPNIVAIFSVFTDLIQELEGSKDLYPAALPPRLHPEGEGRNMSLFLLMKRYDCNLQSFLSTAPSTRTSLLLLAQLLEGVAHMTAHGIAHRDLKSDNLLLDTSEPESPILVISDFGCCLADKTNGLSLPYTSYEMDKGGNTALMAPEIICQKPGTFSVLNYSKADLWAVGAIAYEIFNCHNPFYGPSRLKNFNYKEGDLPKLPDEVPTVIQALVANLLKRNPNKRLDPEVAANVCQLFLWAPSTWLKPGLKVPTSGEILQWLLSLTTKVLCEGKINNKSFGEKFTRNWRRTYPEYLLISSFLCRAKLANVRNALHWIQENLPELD
ULK2, sequence (Q8IYT8 whole entry): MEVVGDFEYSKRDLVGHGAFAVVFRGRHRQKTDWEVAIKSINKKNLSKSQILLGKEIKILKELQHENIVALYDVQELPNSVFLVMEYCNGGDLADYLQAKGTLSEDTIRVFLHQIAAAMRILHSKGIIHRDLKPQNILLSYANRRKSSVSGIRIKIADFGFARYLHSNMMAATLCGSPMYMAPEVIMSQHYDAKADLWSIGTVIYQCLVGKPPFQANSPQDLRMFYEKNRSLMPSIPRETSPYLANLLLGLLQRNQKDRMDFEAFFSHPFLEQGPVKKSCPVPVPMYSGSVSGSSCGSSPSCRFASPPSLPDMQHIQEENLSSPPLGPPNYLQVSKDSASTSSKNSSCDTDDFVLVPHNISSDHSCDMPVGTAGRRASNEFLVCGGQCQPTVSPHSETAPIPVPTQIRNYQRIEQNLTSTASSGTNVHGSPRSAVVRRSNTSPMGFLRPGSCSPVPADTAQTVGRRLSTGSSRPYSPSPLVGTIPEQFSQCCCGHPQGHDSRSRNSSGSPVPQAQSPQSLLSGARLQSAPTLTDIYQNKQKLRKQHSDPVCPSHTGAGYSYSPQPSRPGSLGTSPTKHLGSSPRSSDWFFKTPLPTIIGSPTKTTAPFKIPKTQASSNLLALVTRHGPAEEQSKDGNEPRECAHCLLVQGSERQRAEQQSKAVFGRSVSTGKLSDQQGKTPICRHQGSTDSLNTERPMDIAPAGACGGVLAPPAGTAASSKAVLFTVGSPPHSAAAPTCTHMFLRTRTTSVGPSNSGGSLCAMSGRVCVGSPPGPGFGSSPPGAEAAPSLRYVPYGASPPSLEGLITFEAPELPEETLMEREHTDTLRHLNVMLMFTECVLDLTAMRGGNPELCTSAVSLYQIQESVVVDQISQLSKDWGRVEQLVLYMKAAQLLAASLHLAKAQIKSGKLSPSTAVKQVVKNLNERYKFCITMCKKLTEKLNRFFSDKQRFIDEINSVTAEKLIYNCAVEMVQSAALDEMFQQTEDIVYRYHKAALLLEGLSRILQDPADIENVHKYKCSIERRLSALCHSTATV
p38d MAPK, sequence (O15264 whole entry): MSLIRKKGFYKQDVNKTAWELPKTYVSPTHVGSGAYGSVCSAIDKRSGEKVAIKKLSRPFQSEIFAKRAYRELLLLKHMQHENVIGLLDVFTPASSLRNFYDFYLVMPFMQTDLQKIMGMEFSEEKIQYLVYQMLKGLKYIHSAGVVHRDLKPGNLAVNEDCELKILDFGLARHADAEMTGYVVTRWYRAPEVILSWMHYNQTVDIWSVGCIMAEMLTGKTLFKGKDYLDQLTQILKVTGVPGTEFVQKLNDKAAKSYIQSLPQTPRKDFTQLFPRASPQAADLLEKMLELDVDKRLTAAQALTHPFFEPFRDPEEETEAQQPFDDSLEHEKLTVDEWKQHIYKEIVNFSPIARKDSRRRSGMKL
MARK3, sequence (P27448 whole entry): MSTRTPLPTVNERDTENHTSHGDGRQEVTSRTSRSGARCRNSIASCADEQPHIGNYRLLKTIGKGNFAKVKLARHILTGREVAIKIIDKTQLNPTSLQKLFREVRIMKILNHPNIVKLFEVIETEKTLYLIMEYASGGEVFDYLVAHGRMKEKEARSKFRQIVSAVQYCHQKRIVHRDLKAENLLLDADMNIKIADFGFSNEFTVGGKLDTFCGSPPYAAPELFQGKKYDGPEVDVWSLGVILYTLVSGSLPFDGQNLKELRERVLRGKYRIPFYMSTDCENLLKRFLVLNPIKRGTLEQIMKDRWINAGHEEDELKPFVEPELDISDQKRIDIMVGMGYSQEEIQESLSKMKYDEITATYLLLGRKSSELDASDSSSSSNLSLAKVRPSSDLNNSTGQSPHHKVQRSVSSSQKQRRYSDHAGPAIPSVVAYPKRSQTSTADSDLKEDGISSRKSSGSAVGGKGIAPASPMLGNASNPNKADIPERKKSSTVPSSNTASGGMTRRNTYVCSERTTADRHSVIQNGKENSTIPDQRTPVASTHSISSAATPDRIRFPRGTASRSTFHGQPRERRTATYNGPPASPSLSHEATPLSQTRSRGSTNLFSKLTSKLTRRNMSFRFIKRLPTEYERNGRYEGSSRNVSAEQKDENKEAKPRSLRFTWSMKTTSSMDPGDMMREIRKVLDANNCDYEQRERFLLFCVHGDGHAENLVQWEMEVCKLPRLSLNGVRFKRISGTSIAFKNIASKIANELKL
ERK5, sequence (Q13164 whole entry): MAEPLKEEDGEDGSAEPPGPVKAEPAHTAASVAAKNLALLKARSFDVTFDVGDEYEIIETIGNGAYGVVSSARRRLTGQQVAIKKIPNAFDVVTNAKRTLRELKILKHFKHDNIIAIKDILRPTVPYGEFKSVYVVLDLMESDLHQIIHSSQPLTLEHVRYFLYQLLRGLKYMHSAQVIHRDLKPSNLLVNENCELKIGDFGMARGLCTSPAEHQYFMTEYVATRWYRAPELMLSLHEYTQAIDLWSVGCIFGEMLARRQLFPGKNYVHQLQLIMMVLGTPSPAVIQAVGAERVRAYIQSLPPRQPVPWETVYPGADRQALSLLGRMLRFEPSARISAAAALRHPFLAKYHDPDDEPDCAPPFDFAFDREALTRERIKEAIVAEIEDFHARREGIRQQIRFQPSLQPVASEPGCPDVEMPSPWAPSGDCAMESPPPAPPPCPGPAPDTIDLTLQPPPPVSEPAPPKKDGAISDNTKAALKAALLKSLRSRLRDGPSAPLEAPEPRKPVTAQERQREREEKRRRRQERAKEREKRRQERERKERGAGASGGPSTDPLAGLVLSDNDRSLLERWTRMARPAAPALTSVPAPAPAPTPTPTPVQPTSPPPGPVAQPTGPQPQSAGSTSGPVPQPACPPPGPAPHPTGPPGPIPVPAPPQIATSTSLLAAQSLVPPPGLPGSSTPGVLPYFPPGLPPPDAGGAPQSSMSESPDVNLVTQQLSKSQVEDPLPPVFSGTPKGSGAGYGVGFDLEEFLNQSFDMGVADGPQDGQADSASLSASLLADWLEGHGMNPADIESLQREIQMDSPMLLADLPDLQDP

Row | SMILES | remaining activity at 0.1 µM (BRSK2) | remaining activity at 0.1 µM (TrkA) | remaining activity at 0.1 µM (MNK2) | remaining activity at 0.1 µM (LKB1) | remaining activity at 0.1 µM (FGF-R1) | remaining activity at 0.1 µM (EPH-A2) | remaining activity at 0.1 µM (p38d MAPK) | remaining activity at 0.1 µM (PIM1) | remaining activity at 0.1 µM (CK1δ) | remaining activity at 0.1 µM (PAK2) | remaining activity at 0.1 µM (PINK) | remaining activity at 0.1 µM (RIPK2) | remaining activity at 0.1 µM (MKK6) | remaining activity at 0.1 µM (TGFBR1) | remaining activity at 0.1 µM (ERK5) | remaining activity at 0.1 µM (ULK2) | remaining activity at 0.1 µM (ABL) | remaining activity at 0.1 µM (ZAP70) | remaining activity at 0.1 µM (CDK9-Cyclin T1) | remaining activity at 0.1 µM (ASK1) | other results
1 | CC1=C(C#N)C(c2ccc3c(c2)c(NC(=O)c2ccccc2C)nn3C)C(C#N)=C(C)N1 [BAY-974, N-[5-(3,5-dicyano-2,6-dimethyl-1,4-dihydropyridin-4-yl)-1-methylindazol-3-yl]-2-methylbenzamide] | 112% | 97% | 98% | 104% | 91% | 109% | 108% | 82% | 116% | 88% | 95% | 108% | 94% | 113% | 70% | 60% | 59% | 94% | 114% | 83% | remaining activity at 0.1 µM (CHK1): 78%; remaining activity at 0.1 µM (TSSK1): 55%; remaining activity at 0.1 µM (GSK3b): 93%; remaining activity at 0.1 µM (Src): 92%; remaining activity at 0.1 µM (MPSK1): 105%; remaining activity at 0.1 µM (OSR1): 109%; remaining activity at 0.1 µM (MARK3): 80%; remaining activity at 0.1 µM (BRSK1): 96%; remaining activity at 0.1 µM (PKCγ): 115%; remaining activity at 0.1 µM (MARK1): 93%; remaining activity at 0.1 µM (SIK3): 81%
2 | CCc1ccccc1C(=O)Nc1n[nH]c2c(C)c(F)c(C3C(C#N)=C(C)N(C)C(C)=C3C#N)cc12 [BAY-3827, N-[5-(3,5-dicyano-1,2,6-trimethyl-4H-pyridin-4-yl)-6-fluoro-7-methyl-1H-indazol-3-yl]-2-ethylbenzamide] | 82% | 87% | 99% | 97% | 89% | 114% | 99% | 86% | 103% | 88% | 90% | 102% | 101% | 86% | 80% | 96% | 107% | 96% | 97% | 95% | remaining activity at 1 µM (BRSK2; 1 μM, cross-referenced with screen data of ref 37, read-out: activity remaining after treatment): ≤ 50%; remaining activity at 1 µM (ABL; 1 μM, ABL1, cross-referenced with screen data of ref 37, read-out: activity remaining after treatment): ≥ 99%; remaining activity at 0.1 µM (CHK1): 66%; remaining activity at 0.1 µM (TSSK1): 88%; remaining activity at 0.1 µM (GSK3b): 74%; remaining activity at 0.1 µM (Src): 90%; remaining activity at 0.1 µM (MPSK1): 135%; remaining activity at 0.1 µM (OSR1): 111%; remaining activity at 0.1 µM (MARK3): 98%; remaining activity at 0.1 µM (BRSK1): 77%; remaining activity at 0.1 µM (PKCγ): 94%; remaining activity at 0.1 µM (MARK1): 82%; remaining activity at 0.1 µM (SIK3): 99%
